Laboratory results from patent US8252796B2, “1-butyl-2-hydroxyaralkyl piperazine derivatives and the uses as anti-depression medicine thereof” (CSPC Zhonggi Pharmaceutical Technology (Shijiazhuang) Co. …, priority 2008, dated 2012).
Where two headings read alike, the source gives them in different places.

Tests used:
[1] = target: T1, reuptake of NA by brain synaptosomes (prefrontal cortex) (Rattus norvegicus, UniProt Q9WTR4); assay: Inhibition of [3H]NA reuptake by rat brain synaptosomes, single concentration (Example 35); format: biochemical; conditions: test substance 10 μmol/L; inhibitory rate of 0.1 mM venlafaxine taken as 100%
T1 construct: from tissue; host or cells: rat prefrontal cortex synaptosomes
Method: (§1) Studies on the reuptake of monoamine neurotransmitters by brain synaptosomes was performed, which is a currently important mean adopted in the worldwide in pharmacological studies of central nervous. This method can not only be used to study the action mechanism of a drug, but also be used for screening new drugs acting by this mechanism.
(§2) Male SD rats were sacrificed by cervical dislocation and then the brains thereof were taken out rapidly by decollation and placed on ice. Related rain tissues (for [^3H]5-HT and [^3H]NA reuptake experiment, prefrontal cortex was taken; for [^3H]DA reuptake experiment, striatum was taken) were separated and weighed. 10 times (V/W) of 0.32 mol/L ice-cold sucrose solution was added and was homogenized electrically with glass-teflon. The homogenate was centrifugated at 4° C. at 1000 g×10 min. Then the supernatant was taken and centrifugated at 4° C. at 17000 g×20 min. The precipitation was suspended in 30 volume of KRH Buffer (125 mM NaCl, 4.8 mM KCl, 1.2 mM CaCl2, 1.2 mM MgSO4, 1.0 mM KH2PO4, 22 mM NaHCO3, 25 mM HEPES, 10 mM Glucose, 10 μM Pargyline, 0.2 mg/ml Ascorbic Acid) and then was preserved in an ice bath for use. (for NA reuptake experiment, the cortex needed was suspended in 20 volume of KRH Buffer)
(§3) Stock solution of the test substance was thawed immediately before use and diluted with KBH Buffer to 100 μmol/L, 50 μl thereof was added in 500 μl of total reaction system, and the final concentration was 10 μmol/L. Then 50 μl suspended synaptic prepared above was added and mixed evenly, incubated in water bath for 30 min at 37° C. Then […] [^3H] 5-HT (50 nmol/L [^3H]DA or […] [^3H]NA) was added. After incubated at 37° C. for 10 min, the reaction system was immediately taken out and the reaction was stopped by adding 2 ml of ice-cold 150 mmol/L Tris-HCl buffer solution. The samples were collected on the circular fiberglass membrane by vacuum filtration, and the membrane was washed 3 times with 3 ml of ice-cold Tris-HCl buffer solution. The filtration membrane was removed, baked for 15 min in a far-infrared oven and placed into an EP tube. 1.5 ml scintillation fluid was added overnight and was tested by liquid scintillation counter. For the solvent control total binding tube and the non-specific binding tube, no test substance was added; for the total binding tube, 50 μl solvent was added.

[2] = target: T2, reuptake of DA by brain synaptosomes (striatum) (Rattus norvegicus, UniProt P23977); assay: Inhibition of [3H]DA reuptake by rat brain synaptosomes, single concentration (Example 35); format: biochemical; conditions: test substance 10 μmol/L; inhibitory rate of 0.1 mM 6-hydroxy DA taken as 100%
T2 construct: from tissue; host or cells: rat striatum synaptosomes
Method: as §1, §2, §3

[3] = target: T3, reuptake of 5-HT by brain synaptosomes (prefrontal cortex) (Rattus norvegicus, UniProt P31652); assay: Inhibition of [3H]5-HT reuptake by rat brain synaptosomes, single concentration (Example 35); format: biochemical; conditions: test substance 10 μmol/L; inhibitory rate of 0.1 mM venlafaxine taken as 100%
T3 construct: from tissue; host or cells: rat prefrontal cortex synaptosomes
Method: as §1, §2, §3

[4] = Pharmacokinetics and bioavailability, single i.v. and oral administration in SD rat; format: in vivo; conditions: male, plasma; for Cmax: read-out: Cmax; for AUC (0-t): read-out: AUC (0-t); for half-life: read-out: half life (T½) (converted)
Method: To study the pharmacokinetics parameters and the bioavailability of VIII-9, VIII-10 and SIPI5286 when single i.v. and oral administration in SD rat
Eighteen male rats were randomized into 6 groups and were administrated with the three compounds via i.v. and oral route, respectively. The dosage was 10 mg/kg (IV) and 50 mg/kg (PO). The test substance was dissolved in the solution of 5% DMSO/95% HP-β-CD aqueous solution (30%), and were administrated to the animal via i.v. and oral route. Blood plasma was collected at a serial of time points after i.v. and oral administration, and the blood drug concentrations were determined by LC/MS/MS. Then the pharmacokinetics parameters and the bioavailability were calculated based on the blood drug concentrations.

[5] = test system: ICR mice; assay: Mice Forced Swimming Test (in vivo antidepression activity); conditions: for swimming test: immobility time: n = 12, mean±SD
[6] = target: T4, reuptake of [3H]DA by striatum synaptosomes (Rattus norvegicus, UniProt P23977); assay: IC50 for inhibiting reuptake of [3H]DA by brain synaptosomes (Example 36); format: biochemical; conditions: mean, n = 3~4
T4 construct: from tissue; host or cells: rat striatum synaptosomes
Method: as §2
(§4) 1. Preparation of Rat Brain Synaptosomes (the Same as Example 35)
(§5) The compounds were used for the studies on inhibition effect (IC50) on reuptake of [^3H]5-HT/NA/DA. At least 5 concentrations each time were settled for each test compound. Each concentration was determined by the average of double twin tubes and the test was repeated for more than 3 times. A series of concentrations of the compounds were prepared by gradient dilution before use. 50 μl thereof was added in total reaction system. Then 50 μl suspended synaptic membrane was added and mixed evenly, incubated in water bath at 37° C. for 30 min. Then 10 nmol/L [^3H] 5-HT (or 50 nmol/L [^3H]DA or 40 nmol/L [^3H]NA) was added and incubated in water bath at 37° C. for 10 min (for [^3H]NA, incubated for 5 min). For the [^3H]5-HT reuptake experiment, 50 μL of fluoxetine (100 μmol/L) was added to the non-specific binding tube; for the [^3H]DA reuptake experiment, 50 μL of cocaine (600 μmol/L) was added to the non-specific binding tube; for the [^3H]NA reuptake experiment, 50 μL of desipramine (100 μmol/L) was added to the non-specific binding tube; for the solvent control, solvent was added to the total binding tube, but no test compound added.
(§6) Sigmoidal curve fitting was performed for the data obtained from all of the test drugs by Origin 6.1, and the IC50 value was calculated.

[7] = target: T5, reuptake of [3H]NA by prefrontal cortex synaptosomes (Rattus norvegicus, UniProt Q9WTR4); assay: IC50 for inhibiting reuptake of [3H]NA by brain synaptosomes (Example 36); format: biochemical; conditions: mean, n = 3~4
T5 construct: from tissue; host or cells: rat prefrontal cortex synaptosomes
Method: as §2, §4, §5, §6

[8] = target: T6, reuptake of [3H]5-HT by prefrontal cortex synaptosomes (Rattus norvegicus, UniProt P31652); assay: IC50 for inhibiting reuptake of [3H]5-HT by brain synaptosomes (Example 36); format: biochemical; conditions: mean, n = 3~4
T6 construct: from tissue; host or cells: rat prefrontal cortex synaptosomes
Method: as §2, with “The precipitation was suspended in 30 volume of KRH Buffer (125 mM NaCl, 4.8 mM KCl, 1.2 mM CaCl2, 1.2 mM MgSO4, 1.0 mM KH2PO4, 22 mM NaHCO3, 25 mM HEPES, 10 mM Glucose, 10 μM Pargyline, 0.2 mg/ml Ascorbic Acid) and then was preserved in an ice bath for use.” left out
as §5, §6

T1 sequence (Q9WTR4 1-597): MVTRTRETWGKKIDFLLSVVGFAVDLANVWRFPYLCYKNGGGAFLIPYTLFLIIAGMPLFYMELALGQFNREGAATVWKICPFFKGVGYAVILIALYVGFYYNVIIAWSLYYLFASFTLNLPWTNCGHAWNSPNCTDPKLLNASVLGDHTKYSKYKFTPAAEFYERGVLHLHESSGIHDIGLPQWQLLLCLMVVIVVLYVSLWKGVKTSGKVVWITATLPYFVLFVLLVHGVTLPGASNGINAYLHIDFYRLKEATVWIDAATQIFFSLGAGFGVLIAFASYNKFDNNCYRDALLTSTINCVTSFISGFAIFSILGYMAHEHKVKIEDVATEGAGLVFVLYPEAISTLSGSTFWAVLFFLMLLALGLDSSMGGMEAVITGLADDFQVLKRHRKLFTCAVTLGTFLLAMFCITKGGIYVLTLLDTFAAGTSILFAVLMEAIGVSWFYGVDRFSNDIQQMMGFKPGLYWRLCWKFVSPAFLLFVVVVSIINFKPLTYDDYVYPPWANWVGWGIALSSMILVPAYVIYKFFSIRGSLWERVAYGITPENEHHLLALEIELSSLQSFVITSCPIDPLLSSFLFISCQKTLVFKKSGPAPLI
T2 sequence (P23977 whole entry): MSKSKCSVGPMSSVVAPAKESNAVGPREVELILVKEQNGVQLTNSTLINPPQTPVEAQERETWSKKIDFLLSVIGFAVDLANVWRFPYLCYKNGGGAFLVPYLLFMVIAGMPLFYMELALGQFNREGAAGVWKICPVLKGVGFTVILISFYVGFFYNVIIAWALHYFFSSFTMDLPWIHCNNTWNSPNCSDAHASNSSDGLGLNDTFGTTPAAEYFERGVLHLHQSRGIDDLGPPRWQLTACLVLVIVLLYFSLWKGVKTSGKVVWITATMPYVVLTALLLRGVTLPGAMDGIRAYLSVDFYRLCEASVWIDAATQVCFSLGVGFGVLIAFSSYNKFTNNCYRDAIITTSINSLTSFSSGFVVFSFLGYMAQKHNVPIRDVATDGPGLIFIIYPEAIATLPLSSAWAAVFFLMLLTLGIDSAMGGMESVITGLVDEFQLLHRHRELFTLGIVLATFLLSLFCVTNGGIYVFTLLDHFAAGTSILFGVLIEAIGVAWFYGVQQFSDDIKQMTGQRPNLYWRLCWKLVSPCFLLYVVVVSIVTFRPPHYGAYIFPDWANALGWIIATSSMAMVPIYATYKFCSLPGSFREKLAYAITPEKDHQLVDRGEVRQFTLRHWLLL
T3 sequence (P31652 whole entry): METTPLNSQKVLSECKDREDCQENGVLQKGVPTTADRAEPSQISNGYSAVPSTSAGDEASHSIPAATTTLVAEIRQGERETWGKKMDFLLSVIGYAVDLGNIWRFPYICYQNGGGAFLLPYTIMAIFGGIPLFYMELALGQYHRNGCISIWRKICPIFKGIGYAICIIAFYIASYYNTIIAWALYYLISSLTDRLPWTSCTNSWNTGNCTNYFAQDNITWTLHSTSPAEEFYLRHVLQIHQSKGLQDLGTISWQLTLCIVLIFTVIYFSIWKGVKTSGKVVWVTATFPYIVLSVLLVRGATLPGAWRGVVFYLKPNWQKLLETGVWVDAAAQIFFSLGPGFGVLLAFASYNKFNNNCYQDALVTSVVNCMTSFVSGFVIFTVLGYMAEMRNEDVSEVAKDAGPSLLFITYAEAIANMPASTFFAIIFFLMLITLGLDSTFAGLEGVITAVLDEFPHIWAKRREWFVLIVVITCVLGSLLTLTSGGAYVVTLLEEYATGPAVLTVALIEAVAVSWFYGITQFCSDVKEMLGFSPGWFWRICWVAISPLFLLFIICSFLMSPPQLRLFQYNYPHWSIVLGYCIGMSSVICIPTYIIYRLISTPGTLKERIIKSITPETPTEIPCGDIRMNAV
T5 sequence (Q9WTR4 1-597): as the sequence (Q9WTR4 1-597) above
T4 sequence (P23977 whole entry): as the sequence (P23977 whole entry) above
T6 sequence (P31652 whole entry): as the sequence (P31652 whole entry) above

## CCCC[C@@H]([C@H](O)c1ccc2c(Cl)c(OC)ccc2c1)N1CCN(c2ccccc2OC)CC1 (racemic) [VIII-3, (1SR,2RS)-N^1-o-methoxylphenyl-N^4-[1-butyl-2-(5′-chloro-6′-methoxyl-2′-naphthyl)hydroxyethyl]piperazine]
[1]
  inhibition on the reuptake of NA(%): 144%
[2]
  inhibition on the reuptake of DA(%): 96%
[3]
  Inhibition on the reuptake of 5-HT(%): 65.1%

## CCCC[C@H]([C@@H](O)c1ccc2c(Cl)c(OC)ccc2c1)N1CCN(C(c2ccccc2)c2ccccc2)CC1 (racemic) [VIII-19, (1SR,2RS)-N^1-benzhydryl-N^4-[1-butyl-2-(5′-chloro-6′-methoxyl-2′-naphthyl)hydroxyethyl]piperazine]
[1]
  inhibition on the reuptake of NA(%): 103.6%
[2]
  inhibition on the reuptake of DA(%): 95%
[3]
  Inhibition on the reuptake of 5-HT(%): 73.4%

## CCCC[C@H]([C@@H](O)c1ccc2c(Cl)c(OC)ccc2c1)N1CCN(CC=Cc2ccccc2)CC1 (racemic) [VIII-21, (1SR,2RS)-N^1-cinnamyl-N^4-[1-butyl-2-(5′-chloro-6′-methoxyl-2′-naphthyl)hydroxyethyl]piperazine]
[1]
  inhibition on the reuptake of NA(%): 87.5%
[2]
  inhibition on the reuptake of DA(%): 90%
[3]
  Inhibition on the reuptake of 5-HT(%): 81%

## COc1ccc2cc([C@@H](O)[C@H](C)N3CCN(Cc4ccccc4)CC3)ccc2c1Cl [SIPI5286, reference compound]
[4]; iv, i.v. 10 mg/kg, (5 min)
  Cmax: 13900 ng/mL
[4]; iv, i.v. 10 mg/kg
  AUC (0-t): 12600 ng·h/mL
  half-life: 3.41 h
[4]; oral 50 mg/kg vs i.v. 10 mg/kg, read-out: bioavailability
  bioavailability: 51.6%
[4]; oral 50 mg/kg
  AUC (0-t): 30300 ng·h/mL
  Cmax: 6860 ng/mL
  half-life: 5.71 h
[4]; oral 50 mg/kg, read-out: Tmax
  Tmax: 0.5 h
[5]; Mus musculus, single oral administration
  ED50: 28.9 mg/kg
[5]; one week oral administration, 10.4 mg/kg
  swimming test: immobility time: 123.8 ± 21.68 s
[5]; one week oral administration, 17.3 mg/kg
  swimming test: immobility time: 102.9 ± 37.94 s
[5]; one week oral administration, 28.8 mg/kg
  swimming test: immobility time: 97.2 ± 28.33 s
[5]; one week oral administration, 48 mg/kg
  swimming test: immobility time: 95.5 ± 27.0 s
[5]; single oral administration, 10.4 mg/kg
  swimming test: immobility time: 107.9 ± 37.19 s
[5]; single oral administration, 17.3 mg/kg
  swimming test: immobility time: 105.4 ± 33.11 s
[5]; single oral administration, 28.8 mg/kg
  swimming test: immobility time: 92.1 ± 23.11 s
[5]; single oral administration, 48 mg/kg
  swimming test: immobility time: 90.1 ± 26.02 s
[6]
  IC50: 1150 nM
[7]
  IC50: 185 nM
[8]
  IC50: 12 nM

## COc1ccc2cc(C(O)C(C)N3CCN(Cc4ccccc4)CC3)ccc2c1Cl (centres unmarked) [SIPIyy24, N^1-benzyl-N^4-[1-methyl-2-(5′-chloro-6′-methoxyl-2′-naphthyl) hydroxyethyl]piperazine, reference compound]
[6]
  IC50 [^3H]DA reuptake: No activity detected
[7]
  IC50: 1000 nM
[8]
  IC50: 200 nM

## CCCC[C@@H]([C@@H](O)c1ccc2c(Cl)c(OC)ccc2c1)N1CCN(CC=Cc2ccccc2)CC1 (racemic) [VIII-22, (1SR,2SR)-N^1-cinnamyl-N^4-[1-butyl-2-(5′-chloro-6′-methoxyl-2′-naphthyl)hydroxyethyl]piperazine]
[1]
  inhibition on the reuptake of NA(%): 78.9%
[2]
  inhibition on the reuptake of DA(%): 94%
[3]
  Inhibition on the reuptake of 5-HT(%): 82.3%

## NCCc1cc(O)c(O)cc1O [6-hydroxy DA, reference compound]
[2]
  inhibition on the reuptake of DA(%): 100%

## CCCC[C@H]([C@H](O)c1ccc2c(Cl)c(OC)ccc2c1)N1CCN(C(c2ccccc2)c2ccccc2)CC1 (racemic) [VIII-20, (1SR,2SR)-N^1-benzhydryl-N^4-[1-butyl-2-(5′-chloro-6′-methoxyl-2′-naphthyl)hydroxyethyl]piperazine]
[1]
  inhibition on the reuptake of NA(%): 78%
[2]
  inhibition on the reuptake of DA(%): 57%
[3]
  Inhibition on the reuptake of 5-HT(%): 0%

## CCCC[C@@H]([C@@H](O)c1ccc2c(Cl)c(OC)ccc2c1)N1CCN(c2ccccc2OC)CC1 (racemic) [VIII-4, (1SR,2SR)-N^1-o-methoxylphenyl-N^4-[1-butyl-2-(5′-chloro-6′-methoxyl-2′-naphthyl)hydroxyethyl]piperazine]
[1]
  inhibition on the reuptake of NA(%): 146.5%
[2]
  inhibition on the reuptake of DA(%): 68%
[3]
  Inhibition on the reuptake of 5-HT(%): 23%

## COc1ccc(C(CN(C)C)C2(O)CCCCC2)cc1 (centres unmarked) [venlafaxine, reference compound]
[5]; one week oral administration, 50 mg/kg
  swimming test: immobility time: 83.5 ± 29.0 s
[1]
  inhibition on the reuptake of NA(%): 100%
